These results are taken from ChEMBL document CHEMBL5338802, “To Fold or Not to Fold: Diastereomeric Optimization of an α-Helical Antimicrobial Peptide” (J Med Chem, 2023).

The structures appear in SMILES notation.

System in one data set: not listed separately
Briefly: Induction of membrane disruption in eukaryotic inner membrane mimic EYPC vesicles assessed as carboxyfluorescein leakage at 10 ug/ml measured after 240 secs by fluorescence based assay. In kind it is cell membranes. As to conditions: dose 10.0 µg/ml, time 240.0 sec.
`CC(C)C[C@H](NC(=O)[C@H](CC(C)C)NC(=O)[C@@H](CC(C)C)NC(=O)[C@H](CCCCN)NC(=O)[C@@H](CC(C)C)NC(=O)[C@H](CC(C)C)NC(=O)[C@@H](CCCCN)NC(=O)[C@H](CC(C)C)NC(=O)[C@@H](CC(C)C)NC(=O)[C@H](CCCCN)NC(=O)[C@@H](N)CCCCN)C(N)=O`: the Activity came out at 3%.

Regarding `CC(C)C[C@H](NC(=O)[C@H](CC(C)C)NC(=O)[C@@H](CC(C)C)NC(=O)[C@@H](CCCCN)NC(=O)[C@H](CC(C)C)NC(=O)[C@H](CC(C)C)NC(=O)[C@@H](CCCCN)NC(=O)[C@@H](CC(C)C)NC(=O)[C@H](CC(C)C)NC(=O)[C@H](CCCCN)NC(=O)[C@@H](N)CCCCN)C(N)=O`, the Activity worked out at 2%.

On to `CC(C)C[C@H](NC(=O)[C@H](CCCCN)NC(=O)[C@H](N)CCCCN)C(=O)N[C@@H](CC(C)C)C(=O)N[C@H](CCCCN)C(=O)N[C@H](CC(C)C)C(=O)N[C@H](CC(C)C)C(=O)N[C@@H](CCCCN)C(=O)N[C@@H](CC(C)C)C(=O)N[C@@H](CC(C)C)C(=O)N[C@H](CC(C)C)C(N)=O`, for which the Activity amounted to 3%.

For the next data set, the system named is Erythrocyte. Briefly: Hemolytic activity in human RBC incubated for 4 hrs by visual analysis.
Conditions: not given
In kind it is toxicity, cell-based.
Consider `CC(C)C[C@H](NC(=O)[C@H](CC(C)C)NC(=O)[C@H](CC(C)C)NC(=O)[C@@H](CCCCN)NC(=O)[C@@H](CC(C)C)NC(=O)[C@@H](CC(C)C)NC(=O)[C@@H](CCCCN)NC(=O)[C@H](CC(C)C)NC(=O)[C@H](CC(C)C)NC(=O)[C@H](CCCCN)NC(=O)[C@@H](N)CCCCN)C(N)=O`, for which the MHC turned out to be 1000 µg/mL.

Regarding `CC(C)C[C@H](NC(=O)[C@H](CC(C)C)NC(=O)[C@H](CC(C)C)NC(=O)[C@@H](CCCCN)NC(=O)[C@@H](CC(C)C)NC(=O)[C@@H](CC(C)C)NC(=O)[C@@H](CCCCN)NC(=O)[C@@H](CC(C)C)NC(=O)[C@H](CC(C)C)NC(=O)[C@H](CCCCN)NC(=O)[C@@H](N)CCCCN)C(N)=O`, the MHC is 250 µg/mL.

Compound `CC(C)C[C@H](NC(=O)[C@H](CCCCN)NC(=O)[C@H](CC(C)C)NC(=O)[C@H](CC(C)C)NC(=O)[C@@H](CCCCN)NC(=O)[C@H](CC(C)C)NC(=O)[C@H](CC(C)C)NC(=O)[C@@H](CCCCN)NC(=O)[C@H](N)CCCCN)C(=O)N[C@@H](CC(C)C)C(=O)N[C@H](CC(C)C)C(N)=O` gave an MHC of 1000 µg/mL.

`CC(C)C[C@@H](NC(=O)[C@@H](CC(C)C)NC(=O)[C@@H](CC(C)C)NC(=O)[C@@H](CCCCN)NC(=O)[C@@H](CC(C)C)NC(=O)[C@@H](CC(C)C)NC(=O)[C@@H](CCCCN)NC(=O)[C@@H](CC(C)C)NC(=O)[C@@H](CC(C)C)NC(=O)[C@@H](CCCCN)NC(=O)[C@H](N)CCCCN)C(N)=O` displayed an MHC of 125 µg/mL.

As to `CC(C)C[C@H](NC(=O)[C@H](CC(C)C)NC(=O)[C@H](CC(C)C)NC(=O)[C@H](CCCCN)NC(=O)[C@@H](CC(C)C)NC(=O)[C@@H](CC(C)C)NC(=O)[C@H](CCCCN)NC(=O)[C@@H](CC(C)C)NC(=O)[C@@H](CC(C)C)NC(=O)[C@@H](CCCCN)NC(=O)[C@@H](N)CCCCN)C(N)=O`, the MHC was determined as 250 µg/mL.

`CC(C)C[C@H](NC(=O)[C@H](CC(C)C)NC(=O)[C@H](CC(C)C)NC(=O)[C@H](CCCCN)NC(=O)[C@@H](CC(C)C)NC(=O)[C@@H](CC(C)C)NC(=O)[C@H](CCCCN)NC(=O)[C@H](CC(C)C)NC(=O)[C@H](CC(C)C)NC(=O)[C@H](CCCCN)NC(=O)[C@@H](N)CCCCN)C(N)=O` yielded an MHC of 500 µg/mL.

For `CC(C)C[C@H](NC(=O)[C@H](CC(C)C)NC(=O)[C@@H](CCCCN)NC(=O)[C@H](CC(C)C)NC(=O)[C@H](CC(C)C)NC(=O)[C@@H](CCCCN)NC(=O)[C@H](N)CCCCN)C(=O)N[C@@H](CCCCN)C(=O)N[C@@H](CC(C)C)C(=O)N[C@H](CC(C)C)C(=O)N[C@H](CC(C)C)C(N)=O`, the MHC is above 2000 µg/mL.

Compound `CC(C)C[C@H](NC(=O)[C@@H](CC(C)C)NC(=O)[C@H](CC(C)C)NC(=O)[C@H](CCCCN)NC(=O)[C@@H](CC(C)C)NC(=O)[C@H](CC(C)C)NC(=O)[C@H](CCCCN)NC(=O)[C@@H](CC(C)C)NC(=O)[C@@H](CC(C)C)NC(=O)[C@H](CCCCN)NC(=O)[C@@H](N)CCCCN)C(N)=O` yielded an MHC above 2000 µg/mL.

The compound `CC(C)C[C@H](NC(=O)[C@H](CC(C)C)NC(=O)[C@@H](CC(C)C)NC(=O)[C@H](CCCCN)NC(=O)[C@H](CC(C)C)NC(=O)[C@@H](CC(C)C)NC(=O)[C@H](CCCCN)NC(=O)[C@H](CC(C)C)NC(=O)[C@@H](CC(C)C)NC(=O)[C@@H](CCCCN)NC(=O)[C@@H](N)CCCCN)C(N)=O` registered an MHC above 2000 µg/mL.

With `CC(C)C[C@H](NC(=O)[C@@H](CC(C)C)NC(=O)[C@@H](CC(C)C)NC(=O)[C@H](CCCCN)NC(=O)[C@H](CC(C)C)NC(=O)[C@H](CC(C)C)NC(=O)[C@H](CCCCN)NC(=O)[C@H](CC(C)C)NC(=O)[C@@H](CC(C)C)NC(=O)[C@@H](CCCCN)NC(=O)[C@@H](N)CCCCN)C(N)=O`, the MHC was 1000 µg/mL.

Compound `CC(C)C[C@H](NC(=O)[C@H](CC(C)C)NC(=O)[C@@H](CC(C)C)NC(=O)[C@H](CCCCN)NC(=O)[C@@H](CC(C)C)NC(=O)[C@H](CC(C)C)NC(=O)[C@@H](CCCCN)NC(=O)[C@H](CC(C)C)NC(=O)[C@@H](CC(C)C)NC(=O)[C@H](CCCCN)NC(=O)[C@@H](N)CCCCN)C(N)=O` had an MHC above 2000 µg/mL.

Compound `CC(C)CC(NC(=O)C(CC(C)C)NC(=O)C(CC(C)C)NC(=O)C(CCCCN)NC(=O)C(CC(C)C)NC(=O)C(CC(C)C)NC(=O)C(CCCCN)NC(=O)C(CC(C)C)NC(=O)C(CC(C)C)NC(=O)C(CCCCN)NC(=O)C(N)CCCCN)C(N)=O` (racemic) registered an MHC of 1000 µg/mL.

Compound `CC(C)C[C@H](NC(=O)[C@H](CC(C)C)NC(=O)[C@@H](CCCCN)NC(=O)[C@H](CC(C)C)NC(=O)[C@H](CC(C)C)NC(=O)[C@@H](CCCCN)NC(=O)[C@@H](CC(C)C)NC(=O)[C@H](CC(C)C)NC(=O)[C@H](CCCCN)NC(=O)[C@@H](N)CCCCN)C(=O)N[C@H](CC(C)C)C(N)=O` came in with an MHC above 2000 µg/mL.

The compound `CC(C)C[C@H](NC(=O)[C@H](CC(C)C)NC(=O)[C@H](CC(C)C)NC(=O)[C@H](CCCCN)NC(=O)[C@H](CC(C)C)NC(=O)[C@@H](CC(C)C)NC(=O)[C@H](CCCCN)NC(=O)[C@@H](CC(C)C)NC(=O)[C@@H](CC(C)C)NC(=O)[C@@H](CCCCN)NC(=O)[C@@H](N)CCCCN)C(N)=O` returned an MHC of 250 µg/mL.

In turn, `CC(C)C[C@H](NC(=O)[C@H](CC(C)C)NC(=O)[C@H](CC(C)C)NC(=O)[C@H](CCCCN)NC(=O)[C@@H](CC(C)C)NC(=O)[C@@H](CC(C)C)NC(=O)[C@H](CCCCN)NC(=O)[C@@H](CC(C)C)NC(=O)[C@@H](CC(C)C)NC(=O)[C@H](CCCCN)NC(=O)[C@@H](N)CCCCN)C(N)=O` displayed an MHC of 1000 µg/mL.

`CC(C)C[C@H](NC(=O)[C@H](CC(C)C)NC(=O)[C@@H](CC(C)C)NC(=O)[C@@H](CCCCN)NC(=O)[C@H](CC(C)C)NC(=O)[C@H](CC(C)C)NC(=O)[C@@H](CCCCN)NC(=O)[C@@H](CC(C)C)NC(=O)[C@H](CC(C)C)NC(=O)[C@H](CCCCN)NC(=O)[C@@H](N)CCCCN)C(N)=O`: the MHC worked out at 125 µg/mL.

`CC(C)C[C@H](NC(=O)[C@H](CCCCN)NC(=O)[C@H](N)CCCCN)C(=O)N[C@@H](CC(C)C)C(=O)N[C@H](CCCCN)C(=O)N[C@H](CC(C)C)C(=O)N[C@H](CC(C)C)C(=O)N[C@@H](CCCCN)C(=O)N[C@@H](CC(C)C)C(=O)N[C@@H](CC(C)C)C(=O)N[C@H](CC(C)C)C(N)=O` came in with an MHC of 1000 µg/mL.

As to `CC(C)C[C@H](NC(=O)[C@H](CC(C)C)NC(=O)[C@H](CC(C)C)NC(=O)[C@@H](CCCCN)NC(=O)[C@H](CC(C)C)NC(=O)[C@H](CC(C)C)NC(=O)[C@@H](CCCCN)NC(=O)[C@H](CC(C)C)NC(=O)[C@H](CC(C)C)NC(=O)[C@@H](CCCCN)NC(=O)[C@H](N)CCCCN)C(N)=O`, the MHC was determined as 1000 µg/mL.

For the compound `CC(C)C[C@H](NC(=O)[C@H](CC(C)C)NC(=O)[C@H](CC(C)C)NC(=O)[C@H](CCCCN)NC(=O)[C@H](CC(C)C)NC(=O)[C@H](CC(C)C)NC(=O)[C@@H](CCCCN)NC(=O)[C@H](CC(C)C)NC(=O)[C@H](CC(C)C)NC(=O)[C@@H](CCCCN)NC(=O)[C@@H](N)CCCCN)C(N)=O`, the MHC is below 15.6 µg/mL.

`CC(C)C[C@H](NC(=O)[C@H](CC(C)C)NC(=O)[C@@H](CC(C)C)NC(=O)[C@@H](CCCCN)NC(=O)[C@H](CC(C)C)NC(=O)[C@H](CC(C)C)NC(=O)[C@H](CCCCN)NC(=O)[C@@H](CC(C)C)NC(=O)[C@@H](CC(C)C)NC(=O)[C@H](CCCCN)NC(=O)[C@@H](N)CCCCN)C(N)=O` had an MHC of 1000 µg/mL.

Consider `CC(C)C[C@H](NC(=O)[C@@H](CC(C)C)NC(=O)[C@H](CC(C)C)NC(=O)[C@@H](CCCCN)NC(=O)[C@H](CC(C)C)NC(=O)[C@@H](CC(C)C)NC(=O)[C@H](CCCCN)NC(=O)[C@@H](CC(C)C)NC(=O)[C@H](CC(C)C)NC(=O)[C@@H](CCCCN)NC(=O)[C@@H](N)CCCCN)C(N)=O`, for which the MHC is above 2000 µg/mL.

The compound `CC(C)C[C@H](NC(=O)[C@@H](CC(C)C)NC(=O)[C@H](CCCCN)NC(=O)[C@@H](CC(C)C)NC(=O)[C@H](CC(C)C)NC(=O)[C@@H](CCCCN)NC(=O)[C@H](CC(C)C)NC(=O)[C@@H](CC(C)C)NC(=O)[C@H](CCCCN)NC(=O)[C@H](N)CCCCN)C(=O)N[C@H](CC(C)C)C(N)=O` had an MHC above 2000 µg/mL.

Compound `CC(C)C[C@H](NC(=O)[C@H](CC(C)C)NC(=O)[C@@H](CCCCN)NC(=O)[C@H](CC(C)C)NC(=O)[C@H](CC(C)C)NC(=O)[C@@H](CCCCN)NC(=O)[C@H](CC(C)C)NC(=O)[C@H](CC(C)C)NC(=O)[C@@H](CCCCN)NC(=O)[C@H](N)CCCCN)C(=O)N[C@H](CC(C)C)C(N)=O` gave an MHC above 2000 µg/mL.

In turn, `CC(C)C[C@H](NC(=O)[C@H](CC(C)C)NC(=O)[C@H](CC(C)C)NC(=O)[C@H](CCCCN)NC(=O)[C@@H](CC(C)C)NC(=O)[C@@H](CC(C)C)NC(=O)[C@@H](CCCCN)NC(=O)[C@H](CC(C)C)NC(=O)[C@H](CC(C)C)NC(=O)[C@H](CCCCN)NC(=O)[C@@H](N)CCCCN)C(N)=O` registered an MHC of 31.3 µg/mL.

`CC(C)C[C@H](NC(=O)[C@H](CCCCN)NC(=O)[C@H](CC(C)C)NC(=O)[C@H](CC(C)C)NC(=O)[C@@H](CCCCN)NC(=O)[C@H](N)CCCCN)C(=O)N[C@@H](CC(C)C)C(=O)N[C@@H](CCCCN)C(=O)N[C@@H](CC(C)C)C(=O)N[C@H](CC(C)C)C(=O)N[C@H](CC(C)C)C(N)=O` showed an MHC of 1000 µg/mL.

The compound `CC(C)C[C@H](NC(=O)[C@H](CC(C)C)NC(=O)[C@H](CC(C)C)NC(=O)[C@H](CCCCN)NC(=O)[C@H](CC(C)C)NC(=O)[C@H](CC(C)C)NC(=O)[C@@H](CCCCN)NC(=O)[C@H](CC(C)C)NC(=O)[C@H](CC(C)C)NC(=O)[C@@H](CCCCN)NC(=O)[C@H](N)CCCCN)C(N)=O` showed an MHC below 15.6 µg/mL.

Compound `CC(C)CC(NC(=O)C(CC(C)C)NC(=O)C(CC(C)C)NC(=O)C(CCCCN)NC(=O)C(CC(C)C)NC(=O)[C@H](CC(C)C)NC(=O)C(CCCCN)NC(=O)C(CC(C)C)NC(=O)C(CC(C)C)NC(=O)C(CCCCN)NC(=O)C(N)CCCCN)C(N)=O` (stereo not given in full) registered an MHC of 2000 µg/mL.
